Data published in article PMC11842024, “Reversible male contraception by targeted inhibition of serine/threonine kinase 33” (Science (New York, N.Y.), 2024).

Columns and labels:
[1] = Metabolic stability assay in liver microsomes (HLM); type: in vitro ADME, human
Protocol: (§1) Metabolic stability assay in liver microsomes. The stabilities of CDD-2110, CDD-2211, CDD-2212, CDD-2807, and CDD-3348 in liver microsomes with/without Uridine Diphosphate Glucuronic Acid (UDP-GA, a cofactor of UDP-glucuronosyltransferases) were performed and half-life was calculated as previously reported (36). Briefly, each CDD compound (2.0 μM) was incubated in the mouse or human liver microsomes (0.5 mg protein/mL) at 37°C in 1× PBS fortified with NADPH (1.0 mM) and with/without UDP-GA (2.5 mM). Alamethicin (25 µg/mL) as a pore forming agent was used for the glucuronidation (Table S2A). The samples were collected at specific time-points 0, 30, and 60 min in duplicate. The reactions were terminated by adding equivalent volume of ice-cold methanol (CH3OH) and vortexed. After centrifugation at 15000 g for 10 min, 3.0 μL of the supernatant was analyzed by Thermo TSQ Quantis MS coupled with a Thermo Vanquish UHPLC (San Jose, CA) equipped with a Luna C18 column (1 mm × 50 mm, 1.6 µm, Phenomenex, Torrance, CA). The column temperature was maintained at 40°C. CDD-2807 was monitored under the selected reaction monitoring (SRM) mode coupled with a positive electrospray ionization (ESI) source. The SRM ion pairs were 447→321 for CDD-2807.

[2] = Metabolic stability assay in liver microsomes (MLM); type: in vitro ADME, mouse; settings: for half-life at 2 µM: mouse, liver microsomes
Protocol: as §1

[3] = CDD-2807 concentrations in mouse brain, liver, lung, and testis; type: in vivo, mice
Protocol: Pharmacokinetics (PK) of CDD-2807 in mice. The pharmacokinetic studies (72) of CDD-2807 were performed at three doses via intraperitoneal (i.p.) injection and oral (p.o.) administration.
CDD-2807 was dissolved in 10% Captisol containing 5% DMSO to prepare the solutions of 0.5 mg/mL, 2.5 mg/mL and 5.0 mg/mL. Twelve male mice (strain: C57BL/6NJ, 8−12 weeks) were divided equally and randomly into 4 groups (n = 3 for each dose). One group of mice were administered 5 mg/kg CDD-2807 (i.p., 10 µL/g of 0.5 mg/mL solution), the second group 25 mg/kg CDD-2807 (i.p., 10 µL/g of 2.5 mg/mL solution), the third group 5 mg/kg CDD-2807 (p.o., 10 µL/g of 0.5 mg/mL solution), and the fourth group 50 mg/kg CDD-2807 (p.o., 10 µL/g of 5.0 mg/mL solution). At 0, 5, 10, 15, 30 min, 1, 2, 4, 6, 8, 24 h post-dose, around 20 µL of blood was collected from the tail vein and anti-coagulated by heparin. The blood samples were centrifuged at 2000 g for 3 min at 4°C, and the plasma samples were transferred to tubes and stored at −80°C before analysis. All the samples were analyzed by the Thermo TSQ Quantis MS coupled with a Thermo Vanquish UHPLC (San Jose, CA). CDD-2807 was separated on a Luna C18 column (1 mm × 50 mm, 1.6 µm, Phenomenex, Torrance, CA), and eluted by a water-acetonitrile mobile phase system (both containing 0.1% formic acid, v/v) at the flow rate of 0.15 mL/min. CDD-2807 was monitored under the SRM mode coupled with a positive ESI source. The SRM ion pairs were 447→321 for CDD-2807. The ion spray voltage was set at 3500 V. High-purity nitrogen was used as the sheath gas (35 arbitrary unit), auxiliary gas (7 arbitrary unit), and high-purity argon was used as the collision gas. The temperatures of the ion transfer tube and the vaporizer were set at 300°C and 275°C, respectively. The concentration of CDD-2807 in plasma was quantified using individual calibration curves. The calibration curve was regressed with a weight of 1/x2 with high linearity (r2 >0.99). PK parameters, including half-time (t1/2), area under the plasma concentration– time curve from zero to infinity (AUC0–∞), clearance normalized by the bioavailability (CL/F), volume of distribution normalized by the bioavailability (Vd/F), and the mean residence time (MRT), were calculated by WinNonlin software (Certara, Princeton, NJ) by noncompartmental […]
analysis. […]
CDD-2807 concentrations in mouse brain, liver, lung, and testis. Tissue samples harvested from mice on day 45 of protocol 1 and at 24-hour, day 7, and day 63 of protocol 2 were weighed and snap-frozen in liquid nitrogen. The samples were stored at −80°C before analysis. Twenty-five mg of tissue was homogenized in 150 µL of 50% CH3OH, and 50 µL of homogenate was added to 200 µL of ice-cold CH3OH containing 0.1 µM of agomelatine (internal standard). The mixture was vortexed and centrifuged at 15000 g for 15 min, and supernatants were transferred into sample vials for analysis. CDD-2807 was analyzed by the same method used in the pharmacokinetic study. The concentration of CDD-2807 in the testis and brain was determined by […]
using individual calibration curves established with the corresponding tissue homogenates from untreated mice. The calibration curve was regressed with a weight of 1/x2 with high linearity (r2 […]
Spatial distribution of CDD-2807 in testis. The testis from the mice treated with CDD-2807 were attached to the Leica CM3050 S cryostat (Leica Biosystems, Deer Park, IL) with water and then sectioned at the thickness of 10 μm at −20°C. The sections were attached to electrically conductive glass slides coated with indium tin oxide ([…], 70-100 ohms, Delta Technologies, Loveland, CO). Tissue sections were sprayed with a matrix solution containing 35 mg/mL 2,5-dihydroxybenzoic acid (DHB, Sigma, St. Louis, MO) in 70% aqueous CH3OH with 0.1% trifluoroacetic acid using an HTX TM-Sprayer (HTX Technologies LLC, Carrboro, NC). Sprayer nozzle temperature was set at 70°C, tray temperature at 40°C, nozzle velocity at 1200 mm/min, […]

male mice = assay: Testis size of treated mice; type: in vivo

O=C(c1ccc2[nH]nc(C#Cc3ccccc3-c3ccccc3)c2c1)N1CC2(CCCNC2)C1 [CDD-2807]
Metabolic stability in HLM ([1]; Phase I metabolism): ~ 10 hours | Metabolic stability in HLM ([1]; Phases I and II metabolism): ~ 6 hours | half-life at 2 µM ([1]; human, liver microsomes, NADPH with UDP-GA (2.5 mM), alamethicin, read-out: HLM, t1/2, liver microsomes with glucuronidation): 6.47 h | Metabolic stability MLM, t1/2 ([2]; 2.0 µM, 0.5 mg protein/mL, NADPH, data >60 min is an extrapolated estimate): > 1 h | Metabolic stability in MLM ([2]; Phase I metabolism): ~ 1 hour | Metabolic stability in MLM ([2]; Phases I and II metabolism): ~ 50 minutes | half-life at 2 µM ([2]; 2.0 µM, 0.5 mg protein/mL, NADPH, data >60 min is an extrapolated estimate, read-out: Metabolic stability MLM, t1/2): 1.18 h | half-life at 2 µM ([2]; NADPH with UDP-GA (2.5 mM), alamethicin, read-out: MLM, t1/2, liver microsomes with glucuronidation): 0.833 h | concentration at 7 day ([3]; C57/129 hybrid, mouse, testis, intraperitoneal, 50 mg/kg/day over 7 days): ~24000 ng/g | concentration at 45 day ([3]; male, C57/129 hybrid, mouse, testis, ip, protocol 1 (15 mg/kg i.p. twice per day), day 45): 89600 ± 14100 ng/g | concentration at 63 day ([3]; male, C57/129 hybrid, mouse, testis, ip, protocol 2 (50 mg/kg i.p. once per day), day 63): 114000 ± 7900 ng/g | CDD-2807 in brain ([3]; protocol 1, day 45, collection 12 hours after dosing): 0.28 ± 0.09 ng of CDD-2807 per milligram of tissue | CDD-2807 in lung ([3]; protocol 1 and 2 mice): low levels | CDD-2807 in brain ([3]; protocol 2, day 63, collection 24 hours after dosing): undetectable | testis size (male mice; 50 mg/kg/day for 7 days (Protocol 3)): did not alter | testis size (male mice; protocol 1 at day 45): normal | testis size (male mice; protocol 2 at 63 days): 87.13 ± 5.87 mg
